# According to patent publication US20140235542A1, “MODULAR, BIOACTIVE PEPTIDES FOR BINDING NATIVE BONE AND IMPROVING BONE GRAFT OSTEOINDUCTIVITY” (WISCONSIN ALUMNI RESEARCH FOUNDATION, priority 2013, published 2014):
# Square brackets hold non-standard residues; d marks the D form. Ends that are not written are not given here. Gla = N[C@@H](CC(C(=O)O)C(=O)O)C(=O)O
# What was measured:
# hMSCs [1] = assay: Alkaline phosphatase (ALP) activity in hMSCs; type: cell-based, human; details: peptide bound to HA-coated film, vs untreated substrates
# Protocol: hMSCs (Cambrex, Walkersville, Md., passages 5-6) were cultured in mesenchymal stem cell growth medium (MSCGM: Cambrex) consisting of MSC Basal Medium supplemented with 10% fetal bovine serum, L-glutamine, 100 units/ml penicillin, and 0.1 mg/ml streptomycin and grown using culture methods described elsewhere. […] The effects of soluble peptides included in culture medium were evaluated by adding 50 μg of eBGu3 or eBGa3 peptides to hMSC cultures on TCP in 500 μl of medium with or without osteogenic culture supplements. […]
# The biological activity of modular peptides was initially assayed by their ability to enhance ALP activity in hMSCs. […] ALP activity was measured at 405 nm, and calculated as the ratio of p-nitrophenol released to total DNA concentration (nmol/min/ng DNA). To determine the amount of total DNA in each well, the cell nuclei were disrupted by addition of the aforementioned lysis buffer followed by centrifugation, and quantified using the CyQUANT Assay Kit (Molecular Probes, Eugene, Oreg.).
# [2] = Release kinetics of modular peptides from HA-coated film; details: after 70 days
# Protocol: To quantify release kinetics of 5(6) FAM-conjugated modular peptides from HA-coated film, the films were first incubated in solutions containing 250 μM (˜500 μg) of each peptide (eBGu1, eBGu3, eBGa1, or eBGa3) to allow for binding (as described above), then incubated in 500 μl of PBS buffer at 37° C. with constant agitation for 5 days (eBGu1 and eBGu3 peptides) or 10 weeks (eBGa1 and eBGa3 peptides), respectively. Whole buffer solutions were changed at indicated time points and the amount of peptide released from the HA-coated film was determined via fluorescence analysis and comparison with standards containing known amounts of 5(6)-FAM. The fluorescent images of fluorescently-labeled peptides bound to HA-coated films were obtained using an Olympus IX51 fluorescence microscope (Olympus, Center Valley, Pa.).
# [3] = Binding of 5(6)-FAM-conjugated modular peptides to HA-coated PLG films; details: 4 hr, 37° C.
# Protocol: Poly (lactide-coglycolide) (PLG) films were prepared via a solvent casting process in which PLG (85:15) pellets were dissolved in chloroform (50 mg/ml), added to a PTFE dish, and dried for 2 days. The films were further dried at 50-55° C. for 4 hr to remove residual solvent and samples were cooled to room temperature. Square films (1 cm^2) were manually cut out of the resulting PLG film sheets. A “bone-like” HA-based material layer was grown on the PLG films using a direct deposition technique by biomimetic mineralization in modified simulated body fluid (mSBF).
# To measure the binding efficiency of modular peptides to the HA-coated PLG films and to gain preliminary insight into the properties that influence modular peptide immobilization, 1 cm^2 HA-coated PLG films was first exposed to PBS solutions containing 500 μg (1 mg/ml) of 5(6) FAM-conjugated eBMP-2, eBGu1, eBGu3, eBGa1, or eBGa3 modular peptide solution (See Table 1 for definitions of these abbreviations). The films were incubated in peptide solutions with constant agitation for 4 hr at 37° C., and the amount of free peptide remaining was determined by measuring the fluorescence emission of the solution (excitation: 494 nm; emission 519 nm) using a Synergy HT Multi-Detection Microplate Reader (BioTek, Winooski, Vt.), and comparing this emission to standard samples with known concentrations of 5(6)-FAM. To further characterize surface immobilization of the peptide with the highest binding efficiency—the eBGa3 peptide-1 cm^2 HA-coated films were incubated in various concentrations (50-750 nM) of 5(6)-FAM-conjugated eBGa3 peptide for 4 hr with constant agitation at 37° C. The amount of peptide bound to HA-coated film was again determined by fluorescence analysis, as described above.
# hMSCs [4] = assay: Mineralized tissue formation by hMSCs (Alizarin Red-S staining); type: cell-based, human; details: peptide bound to HA-coated film, vs untreated substrates
# Protocol: hMSCs (Cambrex, Walkersville, Md., passages 5-6) were cultured in mesenchymal stem cell growth medium (MSCGM: Cambrex) consisting of MSC Basal Medium supplemented with 10% fetal bovine serum, L-glutamine, 100 units/ml penicillin, and 0.1 mg/ml streptomycin and grown using culture methods described elsewhere. 2.5×10^4 hMSCs were seeded onto either tissue culture-treated polystyrene (TCP) or four different types of experimental substrates (1 cm^2) (PLG, HA-coated PLG, eBGu3-treated HA coating, or eBGa3-treated HA coating). hMSCs were allowed to attach to each substrate overnight, then cultured in MSCGM with osteogenic culture supplements (OS) (0.1 μM dexamethasone, 50 μg/ml ascorbic acid, and 10 mM β-glycerophosphate) for 24 days. The effects of soluble peptides included in culture medium were evaluated by adding 50 μg of eBGu3 or eBGa3 peptides to hMSC cultures on TCP in 500 μl of medium with or without osteogenic culture supplements. […]
# Characterization of mineralized tissue growth was performed via Alizarin Red-S (ARS) staining at day 20. […] For quantification of staining, 400 μl 10% (v/v) acetic acid was added to each well for 30 minutes with shaking. […] Aliquots (100 μl) of the supernatant were read in triplicate at 405 nm in 96-well plate reader.
substance,measurement,setting,value
KIPKASSVPTELSAISTLYLAAAAγEPRRγEVAγEL (KIPKASSVPTELSAISTLYLAAAA[Gla]PRR[Gla]VA[Gla]L-NH2; N-terminus assumed; SMILES CC[C@H](C)[C@H](NC(=O)[C@H](C)NC(=O)[C@H](CO)NC(=O)[C@H](CC(C)C)NC(=O)[C@H](CCC(=O)O)NC(=O)[C@@H](NC(=O)[C@@H]1CCCN1C(=O)[C@@H](NC(=O)[C@H](CO)NC(=O)[C@H](CO)NC(=O)[C@H](C)NC(=O)[C@H](CCCCN)NC(=O)[C@@H]1CCCN1C(=O)[C@@H](NC(=O)[C@@H](N)CCCCN)[C@@H](C)CC)C(C)C)[C@@H](C)O)C(=O)N[C@@H](CO)C(=O)N[C@H](C(=O)N[C@@H](CC(C)C)C(=O)N[C@@H](Cc1ccc(O)cc1)C(=O)N[C@@H](CC(C)C)C(=O)N[C@@H](C)C(=O)N[C@@H](C)C(=O)N[C@@H](C)C(=O)N[C@@H](C)C(=O)N[C@@H](CC(C(=O)O)C(=O)O)C(=O)N1CCC[C@H]1C(=O)N[C@@H](CCCNC(=N)N)C(=O)N[C@@H](CCCNC(=N)N)C(=O)N[C@@H](CC(C(=O)O)C(=O)O)C(=O)N[C@H](C(=O)N[C@@H](C)C(=O)N[C@@H](CC(C(=O)O)C(=O)O)C(=O)N[C@@H](CC(C)C)C(N)=O)C(C)C)[C@@H](C)O) [eBGa3],effect of immobilized peptide on ALP activity,hMSCs [1],significantly enhanced
same,initially bound peptide remaining bound,[2],~85%
same,peptide released from HA-coated films,"[2]; PBS, 37° C.",15.7±0.6%
same,binding efficiency on the HA-coated PLG films,"[3]; 500 μg (1 mg/ml) 5(6)-FAM-conjugated peptide in PBS, constant agitation",55.9±2.2%
same,peptide amount at which bound amount reached saturation,[3]; HA-coated film,~300 µg
same,peptide concentration at which bound amount reached saturation,[3]; HA-coated film,approximately 150 μM
same,effect of immobilized peptide on mineralized tissue formation,hMSCs [4],significantly enhanced
